The text below walks through data of US6362218B1, “Brefeldin A derivatives” (Purdue Research Foundation, priority 1997, dated 2002).

One data set deals with HOP-62. Put plainly: NCI human cancer cell line screen, antiproliferative activity, Lung HOP-62. Type of data set: cell-based. As to conditions: concentration corresponding to 50% growth inhibition, read-out: cytotoxicity GI50, Lung HOP-62. The procedure:
(§1) The new synthesized brefeldin A prodrug candidates and analogs were examined for antiproliferative activity against human cancer cell lines in the National Cancer Institute screen, in which the activity of each compound was evaluated with approximately 55 different cancer cell lines of diverse tumor origins.

In another data set the test system is HCT-116. The data set is described as follows: NCI human cancer cell line screen, antiproliferative activity, Colon HCT-116. The format is cell-based. As to conditions: concentration corresponding to 50% growth inhibition, read-out: cytotoxicity GI50, Colon HCT-116. The method, then: as §1
A further data set relates to SF-539. The data set is described as follows: NCI human cancer cell line screen, antiproliferative activity, CNS SF-539. The format is cell-based. As to conditions: concentration corresponding to 50% growth inhibition, read-out: cytotoxicity GI50, CNS SF-539. The method, then:
as §1

The test system of another data set is UACC-62. The data set is described as follows: NCI human cancer cell line screen, antiproliferative activity, Melanoma UACC-62. The format is cell-based. As to conditions: concentration corresponding to 50% growth inhibition, read-out: cytotoxicity GI50, Melanoma UACC-62. The procedure: as §1
Another data set concerns OVCAR-3. The data set is described as follows: NCI human cancer cell line screen, antiproliferative activity, Ovarian OVCAR-3. Type of data set: cell-based. As to conditions: concentration corresponding to 50% growth inhibition, read-out: cytotoxicity GI50, Ovarian OVCAR-3. The method, then: as §1
The test system of the next data set is SN12C. The data set is described as follows: NCI human cancer cell line screen, antiproliferative activity, Renal SN12C. Type of data set: cell-based. As to conditions: concentration corresponding to 50% growth inhibition, read-out: cytotoxicity GI50, Renal SN12C. The method, then: as §1
A further data set relates to DU-145. Put plainly: NCI human cancer cell line screen, antiproliferative activity, Prostate DU-145. Type of data set: cell-based. As to conditions: concentration corresponding to 50% growth inhibition, read-out: cytotoxicity GI50, Prostate DU-145. The method, then:
as §1

In the next data set the test system is MDA-MB-435. Put plainly: NCI human cancer cell line screen, antiproliferative activity, Breast MDA-MB-435. The format is cell-based. As to conditions: concentration corresponding to 50% growth inhibition, read-out: cytotoxicity GI50, Breast MDA-MB-435. The procedure: as §1
Data set [1] deals with all human cancer cell lines successfully tested. Put plainly: NCI screen, mean graph midpoint over approximately 55 cancer cell lines. The format is cell-based. As to conditions: average GI50 for all cell lines tested (approximately 55), test range 10^-4 to 10^-8 molar. The method, then: as §1
Data set [2] in a line: Solubility of saturated solutions in distilled water, gravimetric. As to conditions: distilled water at room temperature, saturated solution.
The conditions of data set [3]: buffer, pH 7.4.

Each structure is given as a SMILES string. In brackets after ≈: the same amount, converted by molar mass. Several values for one entry are separate records, joined by “and”; a condition that tells them apart may be missing. Equal entries are not always repeated.

In the case of `C[C@H]1CCC/C=C/[C@@H]2C[C@H](O)C[C@H]2[C@H](O)/C=C/C(=O)O1` [Compound 1, Brefeldin A], the GI50 (commonly the concentration that inhibits growth by half) worked out at 70 nM in the data set on HOP-62; 29 nM in the data set with HCT-116; 40 nM in the data set with SF-539; 22 nM with UACC-62; 32 nM in the data set with OVCAR-3; 90 nM in the data set with SN12C. Moreover, the GI50 in the data set on DU-145 was found to be 130 nM; in the data set on MDA-MB-435, 41 nM. Besides, the “MGM (mean graph midpoint for growth inhibition)” value was 0.041 µM and 0.040 µM in [1]; 0.040 µM in data set [1] (listed as brefeldin A). Further, the solubility (usually the concentration that dissolves in the medium under given conditions) in [2] was found to be 2.8 mg/mL (≈ 9.99 mM).
Take `CC1CCCC=CC2CC(O)CC2C(O)C(SCCO)CC(=O)O1` [Compound 5, 2,3-Dihydro-(3R)-(2′-hydroxyethylthio)brefeldin A]: the GI50 in the data set on HOP-62 was 34000 nM; in the data set on HCT-116, 19000 nM; in the data set with SF-539, 23000 nM; with UACC-62, 40000 nM; in the data set with OVCAR-3, 27000 nM; in the data set on SN12C it was 33000 nM. For the same molecule, the figures for the GI50 in the data set on DU-145 and in the data set with MDA-MB-435 were 30000 nM and 34000 nM, respectively. The “MGM (mean graph midpoint for growth inhibition)” value in [1] was 20 µM. The molecule also yielded a solubility in data set [2] of 12 mg/mL (≈ 33.5 mM).
As for `C[C@H]1CCC/C=C/[C@@H]2C[C@H](O)C[C@H]2[C@H](O)[C@@H](SC[C@H](N)C(=O)O)CC(=O)O1` [Compound 11, 2,3-Dihydro-(3R)-(S-L-cysteinyl)brefeldin A], the solubility in data set [2] was found to be 35 mg/mL (≈ 87.2 mM).
Turning to `CC1CCCC=CC2CC(O)CC2C(O)[C@H]([S+]([O-])CCO)CC(=O)O1` (stereo partly drawn) [Compound 15, 2,3-Dihydro-(3R)-(2′-hydroxyethylsulfinyl)brefeldin A], the GI50 with HOP-62 turned out to be 290 nM; in the data set with HCT-116, 210 nM; in the data set on SF-539 it was 58 nM; with UACC-62, 64 nM; with OVCAR-3 it was 190 nM; with SN12C, 650 nM. Further, the GI50 stood at 260 nM in the data set with DU-145 and 90 nM in the data set on MDA-MB-435. In [1], the “MGM (mean graph midpoint for growth inhibition)” value was 0.11 µM. In addition, the “half-life for the conversion of the sulfoxide to brefeldin A” value in [3] turned out to be 4.81 h.
Take `CC1CCCC=CC2CC(O)CC2C(O)[C@H](CC(=O)O)CC(=O)O1` (stereo partly drawn) [Compound 6, 2,3-Dihydro-(3R)-(carboxymethyl)brefeldin A]: the GI50 with HOP-62 is 30000 nM; with HCT-116, 23000 nM; with SF-539, 34000 nM; in the data set on UACC-62, 33000 nM; with OVCAR-3, 30000 nM; in the data set on SN12C, 39000 nM. In addition, the 50% growth inhibitory concentration (GI50) in the data set on DU-145 worked out at 38000 nM; in the data set on MDA-MB-435 it was 42000 nM. In addition, in data set [1], the “MGM (mean graph midpoint for growth inhibition)” value is 33 µM. Besides, in data set [2], the solubility amounted to 40 mg/mL (≈ 118 mM).
Take `CC1CCCC=CC2CC(O)CC2C(O)C(SCCN(C)C)CC(=O)O1` [Compound 4, 2,3-Dihydro-(3R)-(2′-N,N-dimethylaminoethylthiol)brefeldin A]: the GI50 in the data set on HCT-116 was found to be 750 nM; in the data set on SF-539 it was 390 nM; in the data set with UACC-62 it was 430 nM; with SN12C, 1400 nM; in the data set with DU-145, 2400 nM; in the data set on MDA-MB-435 it was 500 nM. For the same molecule, the “MGM (mean graph midpoint for growth inhibition)” value in [1] came out at 0.68 µM. In data set [2], this molecule showed a solubility of 10 mg/mL (≈ 25.9 mM).
Turning to `COC(=O)CC[S+]([O-])C1CC(=O)OC(C)CCCC=CC2CC(O)CC2C1O` [Compound 13, 2,3-Dihydro-(3R)-(2′-methoxycarbonylethylsulfinyl)brefeldin A], the “half-life for the conversion of the sulfoxide to brefeldin A” value in [3] was 87.4 h.
On to `CC1CCCC=CC2CC(O)CC2C(O)[C@H]([S+]([O-])CCN)CC(=O)O1` (stereo partly drawn) [Compound 18, 2,3-Dihydro-(3R)-(2′-aminoethylsulfinyl)brefeldin A], for which the GI50 worked out at 150 nM in the data set on HOP-62; 86 nM in the data set on HCT-116; 20 nM with SF-539; 21 nM in the data set on UACC-62; 82 nM with OVCAR-3; 120 nM in the data set with SN12C. Besides, the 50% growth inhibitory concentration (GI50) in the data set with DU-145 was 170 nM; in the data set with MDA-MB-435, 55 nM. Moreover, the “MGM (mean graph midpoint for growth inhibition)” value in data set [1] was 0.055 µM.
For `COc1ccc(S[C@@H]2CC(=O)OC(C)CCCC=CC3CC(O)CC3C2O)cc1` (stereo partly drawn) [Compound 10, 2,3-Dihydro-(3R)-(4′-methoxyphenylthio)brefeldin A], the GI50 with HOP-62 is 24000 nM; in the data set on HCT-116, 33000 nM; in the data set on SF-539 it was 26000 nM; in the data set with UACC-62, 29000 nM; in the data set with OVCAR-3 it was 22000 nM; in the data set with SN12C it was 30000 nM. Also, the GI50 was 36000 nM with DU-145 and 19000 nM in the data set with MDA-MB-435. The “MGM (mean graph midpoint for growth inhibition)” value in data set [1] is 31 µM.
Consider `C[C@H]1CCC/C=C/[C@@H]2C[C@H](OC(=O)CCC(=O)O)C[C@H]2[C@H](OC(=O)CCC(=O)O)/C=C/C(=O)O1` [Compound 24, Brefeldin A Disuccinate], for which the GI50 in the data set on HOP-62, with HCT-116, in the data set on SF-539, in the data set with UACC-62, in the data set on OVCAR-3 and with SN12C was greater than 100000 nM in each case. For the same molecule, the GI50 in the data set on DU-145 and in the data set on MDA-MB-435 was greater than 100000 nM throughout. For the same molecule, in [1], the “MGM (mean graph midpoint for growth inhibition)” value was 89 µM.
Take `C[C@H]1CCC/C=C/[C@@H]2C[C@H](O)C[C@H]2[C@H](O)[C@H]([S+]([O-])c2ccc(O)cc2)CC(=O)O1` (stereo partly drawn) [Compound 14, 2,3-Dihydro-(3R)-(4′-hydroxyphenylsulfinyl)brefeldin A]: the GI50 in the data set on HOP-62 came to 88 nM; with HCT-116 it was 26 nM; in the data set on SF-539 it was 17 nM; in the data set with UACC-62 it was 30 nM; in the data set with OVCAR-3, 25 nM; with SN12C, 50 nM. Besides, the GI50 turned out to be 118 nM in the data set on DU-145 and 42 nM in the data set with MDA-MB-435. The “MGM (mean graph midpoint for growth inhibition)” value in data set [1] turned out to be 0.037 µM.
For the molecule `CC1CCCC=CC2CC(O)CC2C(O)C([S+]([O-])C[C@H](N)C(=O)O)CC(=O)O1` (stereo partly drawn) [Compound 21, 2,3-Dihydro-(3R)-(S-L-cysteinyl)brefeldin A Sulfoxide], the GI50 was 700 nM in the data set on HOP-62; 91 nM with HCT-116; 38 nM with SF-539; 38 nM in the data set with UACC-62; 39 nM in the data set on OVCAR-3; 160 nM in the data set with SN12C. For the same molecule, the GI50 was 430 nM in the data set with DU-145 and 50 nM in the data set on MDA-MB-435. Besides, in [1], the “MGM (mean graph midpoint for growth inhibition)” value was 0.096 µM.
`CC1CCCC=CC2CC(O)CC2C(O)[C@H](SCC(O)CO)CC(=O)O1` (stereo partly drawn) [Compound 8, 2,3-Dihydro (3R)-(2′,3′-dihydroxypropylthio) brefeldin A]: the GI50 in the data set with HOP-62 is 33000 nM; with HCT-116, 36000 nM; in the data set with SF-539, 32000 nM; with UACC-62, 16000 nM; with OVCAR-3 it was 22000 nM; in the data set on SN12C it was 34000 nM. The GI50 in the data set on DU-145 was 18000 nM; in the data set on MDA-MB-435, 36000 nM. Besides, the “MGM (mean graph midpoint for growth inhibition)” value in [1] turned out to be 23 µM.
